Experimental data reported in ChEMBL document CHEMBL6096649, “Enantiomeric C-6 fluorinated swainsonine derivatives as highly selective and potent inhibitors of α-mannosidase and α-l-rhamnosidase: Design, synthesis and structure-activity relationship study” (Eur J Med Chem, 2025).

Test system: Oryza sativa
Experiment: Inhibition of rice Alpha-glucosidase using p-nitrophenyl glycoside as substrate assessed as p-nitrophenol release at 1000 uM by spectrometric analysis relative to control

Row | SMILES | inhibition
1 | O[C@H]1[C@H]2[C@@H](O)C[C@H](F)CN2C[C@H]1O | 15.9%

Test system: Aspergillus niger
Experiment: Inhibition of Aspergillus niger amyloglucosidase using p-nitrophenyl glycoside as substrate assessed as release of p-nitrophenol at 1000 uM by spectrometric analysis relative to control

Row | SMILES | inhibition
2 | O[C@H]1[C@H]2[C@@H](O)C[C@H](F)CN2C[C@H]1O | 2.3%

Biological target: Alpha-galactosidase (Coffea arabica) (UniProt Q42656)
Experiment: Inhibition of coffee bean alpha-galactosidase using p-nitrophenyl glycoside as substrate assessed as release of p-nitrophenol at 1000 uM by spectrometric analysis relative to control

Sequence of Alpha-galactosidase (Coffea arabica) (Q42656 16-378 limits assumed): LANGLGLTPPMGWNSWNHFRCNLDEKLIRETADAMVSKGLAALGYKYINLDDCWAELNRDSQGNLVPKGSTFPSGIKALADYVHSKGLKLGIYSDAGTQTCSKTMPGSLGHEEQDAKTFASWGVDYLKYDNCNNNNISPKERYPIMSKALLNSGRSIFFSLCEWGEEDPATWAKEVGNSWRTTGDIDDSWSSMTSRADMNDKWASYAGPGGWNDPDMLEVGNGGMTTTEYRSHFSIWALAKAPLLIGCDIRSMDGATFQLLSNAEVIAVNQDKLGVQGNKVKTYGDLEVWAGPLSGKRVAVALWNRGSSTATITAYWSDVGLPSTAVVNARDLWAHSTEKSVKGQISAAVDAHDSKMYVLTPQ

Row | SMILES | inhibition
3 | O[C@H]1[C@H]2[C@@H](O)C[C@H](F)CN2C[C@H]1O | 0%

Test system: Penicillium decumbens
Experiment: Inhibition of Penicillium decumbens alpha-L-rhamnosidase using p-nitrophenyl glycoside as substrate assessed as release of p-nitrophenol at 1000 uM by spectrometric analysis relative to control

Row | SMILES | inhibition
4 | O[C@H]1[C@H]2[C@@H](O)C[C@H](F)CN2C[C@H]1O | 11.3%

Species: Bos taurus
Experiment: Inhibition of bovine liver beta-galactosidase using p-nitrophenyl glycoside as substrate assessed as release of p-nitrophenol at 1000 uM by spectrometric analysis relative to control

Row | SMILES | inhibition
5 | O[C@H]1[C@H]2[C@@H](O)C[C@H](F)CN2C[C@H]1O | 0%

Species: Rattus norvegicus
Experiment: Inhibition of rat intestinal Alpha-glucosidase using p-nitrophenyl glycoside as substrate assessed as p-nitrophenol release at 1000 uM by spectrometric analysis relative to control

Row | SMILES | inhibition
6 | O[C@H]1[C@H]2[C@@H](O)C[C@H](F)CN2C[C@H]1O | 0%

Test system: Prunus dulcis
Experiment: Inhibition of almond Beta-glucosidase using p-nitrophenyl glycoside as substrate assessed as release of p-nitrophenol at 1000 uM by spectrometric analysis relative to control

Row | SMILES | inhibition
7 | O[C@H]1[C@H]2[C@@H](O)C[C@H](F)CN2C[C@H]1O | 3.2%

Species: Bos taurus
Experiment: Inhibition of bovine liver beta-glucuronidase using p-nitrophenyl glycoside as substrate assessed as release of p-nitrophenol at 1000 uM by spectrometric analysis relative to control

Row | SMILES | inhibition
8 | O[C@H]1[C@H]2[C@@H](O)C[C@H](F)CN2C[C@H]1O | 3.1%

Biological target: Alpha glucosidase (Homo sapiens) (UniProt O43451+P10253+P14410+Q2M2H8)
Experiment: Inhibition of human Alpha-glucosidase using p-nitrophenyl glycoside as substrate assessed as p-nitrophenol release at 1000 uM by spectrometric analysis relative to control
Format: protein assay

Row | SMILES | inhibition
9 | O[C@H]1[C@H]2[C@@H](O)C[C@H](F)CN2C[C@H]1O | 3%

Species: Homo sapiens
Experiment: Inhibition of human lysosome beta-glucosidase using p-nitrophenyl glycoside as substrate assessed as release of p-nitrophenol at 1000 uM by spectrometric analysis relative to control

Row | SMILES | inhibition
10 | O[C@H]1[C@H]2[C@@H](O)C[C@H](F)CN2C[C@H]1O | 7.1%

Biological target: not listed separately
Experiment: Inhibition of human liver Alpha-mannosidase

Row | IC50 | SMILES | Ki
11 | 0.09 µM | OC[C@H]1[C@@H](O)[C@@H](O)CN1Cc1ccc(Br)cc1 | –
12 | 97 µM | O[C@@H]1[C@H](O)C[S+]2CCCS[C@H]12 (stereo partly specified) | –
13 | 51 µM | CC(=O)NCCCC[C@H]1C[C@@H](O)[C@@H]2[C@H](O)[C@H](O)CN2C1 | –
14 | 4.2 µM | OC[C@H](NC[C@H]1OC[C@H](O)[C@@H]1O)c1ccccc1 | –
15 | 3.9 µM | OC[C@@H](O)[C@H]1NC[C@@H](O)[C@H]1O | –
16 | 0.09 µM | OC[C@H]1[C@@H](O)[C@@H](O)CN1Cc1ccc(I)cc1 | –
17 | 0.09 µM | OC[C@H]1[C@@H](O)[C@@H](O)CN1Cc1ccccc1 | –
18 | 89 µM | O=C(OC[C@H](NC[C@H]1OC[C@H](O)[C@@H]1O)c1ccccc1)c1ccc(Br)cc1 | –
19 | – | NC[C@@H]1[C@@H](O)[C@@H](O)[C@H]2[C@H](O)CCCN21 | 0.097 µM

Row | SMILES | IC50 | Ki
20 | Cc1ccc(C(=O)C[C@H]2CC[C@@H](O)[C@@H]3[C@H](O)[C@H](O)CN23)cc1 | 29 µM | –
21 | OC[C@@H]1[C@@H](O)[C@@H](O)[C@H]2[C@H](O)CCCN21 | 1.2 µM | –

Species: Bos taurus
Experiment: Inhibition of bovine liver beta-glucosidase using p-nitrophenyl glycoside as substrate assessed as release of p-nitrophenol at 1000 uM by spectrometric analysis relative to control

Row | SMILES | inhibition
22 | O[C@H]1[C@H]2[C@@H](O)C[C@H](F)CN2C[C@H]1O | 3.8%

Test system: Escherichia coli
Experiment: Inhibition of Escherichia coli beta-glucuronidase using p-nitrophenyl glycoside as substrate assessed as release of p-nitrophenol at 1000 uM by spectrometric analysis relative to control

Row | SMILES | inhibition
23 | O[C@H]1[C@H]2[C@@H](O)C[C@H](F)CN2C[C@H]1O | 0%

Biological target: Alpha-glucosidase (Saccharomyces cerevisiae S288c) (UniProt P53341+P38158+P07265)
Experiment: Inhibition of yeast Alpha-glucosidase using p-nitrophenyl glycoside as substrate assessed as p-nitrophenol release at 1000 uM by spectrometric analysis relative to control
Format: protein assay

Row | SMILES | inhibition
24 | O[C@H]1[C@H]2[C@@H](O)C[C@H](F)CN2C[C@H]1O | 3.4%

Biological target: T1, Alpha-mannosidase (Canavalia ensiformis) (UniProt C0HJB3)
T1 sequence (whole entry): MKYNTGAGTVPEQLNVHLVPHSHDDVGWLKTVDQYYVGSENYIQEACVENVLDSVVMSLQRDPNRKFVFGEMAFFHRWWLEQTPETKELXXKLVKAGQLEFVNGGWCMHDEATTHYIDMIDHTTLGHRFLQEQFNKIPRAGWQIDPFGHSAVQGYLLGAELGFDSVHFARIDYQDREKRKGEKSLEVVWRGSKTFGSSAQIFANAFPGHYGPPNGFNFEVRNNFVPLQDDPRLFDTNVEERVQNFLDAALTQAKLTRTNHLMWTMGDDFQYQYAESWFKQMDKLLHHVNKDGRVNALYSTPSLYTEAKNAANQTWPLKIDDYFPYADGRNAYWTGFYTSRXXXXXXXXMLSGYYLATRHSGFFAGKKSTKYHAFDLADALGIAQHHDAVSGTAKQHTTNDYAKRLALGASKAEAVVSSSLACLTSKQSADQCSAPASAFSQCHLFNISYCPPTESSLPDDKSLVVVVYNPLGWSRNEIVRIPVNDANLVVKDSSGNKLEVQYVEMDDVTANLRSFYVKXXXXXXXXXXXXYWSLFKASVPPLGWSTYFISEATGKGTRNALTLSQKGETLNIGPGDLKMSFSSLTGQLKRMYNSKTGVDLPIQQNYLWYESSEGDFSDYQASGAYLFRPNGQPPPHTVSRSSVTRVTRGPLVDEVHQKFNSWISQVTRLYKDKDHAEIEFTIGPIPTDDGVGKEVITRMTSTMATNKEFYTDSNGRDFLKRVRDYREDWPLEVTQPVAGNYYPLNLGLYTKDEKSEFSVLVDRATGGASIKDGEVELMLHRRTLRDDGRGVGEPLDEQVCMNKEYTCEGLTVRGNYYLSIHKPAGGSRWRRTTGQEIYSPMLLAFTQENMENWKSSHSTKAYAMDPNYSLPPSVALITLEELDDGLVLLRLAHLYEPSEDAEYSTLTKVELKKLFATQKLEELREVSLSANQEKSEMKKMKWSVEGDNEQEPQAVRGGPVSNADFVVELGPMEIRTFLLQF
Experiment: Inhibition of jack bean alpha-mannosidase using p-nitrophenyl glycoside as substrate assessed as release of p-nitrophenol at 1000 uM by spectrometric analysis relative to control

Row | SMILES | inhibition
25 | O[C@H]1[C@H]2[C@@H](O)C[C@H](F)CN2C[C@H]1O | 14.9%

Test system: Helix pomatia
Experiment: Inhibition of snail beta-mannosidase using p-nitrophenyl glycoside as substrate assessed as release of p-nitrophenol at 1000 uM by spectrometric analysis relative to control

Row | SMILES | inhibition
26 | O[C@H]1[C@H]2[C@@H](O)C[C@H](F)CN2C[C@H]1O | 21.7%
